This is an account of results in patent US20240342137A1 (priority 2023, published 2024).

Data set [1] addresses T1, alpha-2 adrenoceptors.
T1 construct: rows headed: Alpha-2 Ki; other: [3H]clonidine displacement, brain membrane; other: alpha-2; lower sensitivity compared to atipamezole; other: alpha-2, vs atipamezole
Conditions: cited from earlier work; for IC50: read-out: half-maximal inhibitory concentration.

For data set [2] the following is noted: human, in vivo, 20 mg, cited from earlier work.
The subject of data set [3] is xylazine sedative effects. Conditions: in vivo; cited from earlier work.
Data set [4] is described as follows: physchem. As to conditions: water.
For data set [5] the following is noted: human, in vivo, cited from earlier work.
The target in data set [6] is alpha-1 adrenoceptors. Conditions: cited from earlier work.
Data set [7] relates to other adrenergic, opioid or GABA (Gamma-AminoButyric Acid class) sedative and analgesic agents. As to conditions: cited from earlier work.
The format of data set [8] is physicochemical. As to conditions: pH 6.
For data set [9] the following is noted: human, in vivo; cited from earlier work.
In data set [10] the test system is other neurotransmitter receptors including I2 and 5-HT. As to conditions: cited from earlier work.

Values after ≈ are worked out from the molar mass of the structure shown. Read-outs that look alike come from different tables or passages of the source.

As a reminder, the Ki is a dissociation constant, usually derived from enzyme kinetics or from competition with a known ligand. One may read the AUC as the area under the concentration-time curve, a measure of exposure. For orientation: Cmax means the peak of the concentration-time curve. Usually Tmax stands for the time at which the peak concentration occurs. By solubility is commonly meant the concentration that dissolves in the medium under given conditions. In the case of `CCC1(c2cnc[nH]2)Cc2ccccc2C1` [Atipamezole, 4-(2-ethyl-2,3-dihydro-1H-inden-2-yl)-1H-imidazole], in [1], the Ki is 0.0016 µM and the IC50 is 0.0016 µM. Moreover, in data set [2], the AUC is 0.085 µg·h/mL, the Cmax is 0.023 µg/mL, the T1/2 is on record as 2.0 h and the time of peak concentration (Tmax) is 0.76 h. In [2] (iv), the AUC was 0.231 µg·h/mL, the Cmax is 0.145 µg/mL and the T1/2 was 1.8 h. Further, in [2] (po), the AUC was 0.0042 µg·h/mL, the peak concentration (Cmax) is 0.0012 µg/mL, the T1/2 is reported as 2.0 h and the Tmax is recorded as 0.82 h. In addition, in [3], the “breathing rate reversal of xylazine sedative effects” value is “Rapid breathing rate reversal of xylazine sedative effects within a few” and the “concentrations of atipamezole for restoring breathing rate” value was 10 to 20 ng/mL. This compound had a solubility in data set [4] of approximately 0.07 mg/mL (≈ 330 µM). In data set [5] (iv, 15 ug/kg), the T1/2 is given as 2.04 h and the Tmax is 0.25 h. Moreover, in data set [5] (iv, 50 ug/kg), the T1/2 was 1.92 h. Further, the T1/2 in [5] (iv, 150 ug/kg) is on record as 1.83 h. In addition, in [5] (iv), the elimination half-life entry is reported as “approximately 2 hour”. In data set [5], the elimination half-life result was “Short elimination half-life (~2 h in humans) improving safety”. For the same compound, the Ki in data set [6] is 13.3 µM. In [7], the “effect on other adrenergic, opioid or GABA sedative and analgesic agents” value is “No effect on other adrenergic, opioid or GABA (Gamma-AminoButyric”. Moreover, in [8], the “final atipamezole concentration when fully dissolved” value amounted to 375.8 mM. Besides, in data set [9], the “increase in heart rate and blood pressure” value was 14-17 mmHg (which may benefit those who are under deep respiratory; the “safety in humans by dose” value is listed as “safe up to 100 mg dose”; the “untoward or Severe Adverse Event (SAE)” value is given as “At 30-100 mg/dose in human with no major untoward or Severe Adverse”. In addition, in [10], the “effect on other neurotransmitter receptors including I2 and 5-HT” value was “Negligible or no effect on other neurotransmitter receptors including I2”.

Regarding `c1ccc2c(c1)OCC(C1=NCCN1)O2` (stereo not drawn) [Idazoxan], in [1], the inhibitory constant (Ki) is 0.148 µM and the IC50 was 0.148 µM. Besides, the Ki in [6] is 3.96 µM.

Turning to `COC(=O)[C@@H]1[C@H]2C[C@H]3c4[nH]c5ccccc5c4CCN3C[C@@H]2CC[C@@H]1O` [Yohimbine], the Ki in data set [6] was 5.13 µM.
